In patent publication US20140357713A1, “ANTIMICROBIAL COMPOUNDS AND METHODS OF USE” (NexMed Holdings, Inc., priority 2012, published 2014):
Counter-ions that a name gives are not always drawn.

Tests used:
Assay in all cases: MIC assay with different strains, Example 35
Format in all cases: cell-based
[1] = test system: Staphylococcus haemolyticus (ATCC 29970)
Method: (§1) The minimum inhibitory concentration (MIC) is used to determine the lowest concentration of a test product claiming antimicrobial effects that will inhibit growth of a microorganism. Each microbial suspension was adjusted approximately 10^7 to 10^8 colony forming units (CFU) per mL and labeled as the stock suspension. The stock suspension was further diluted to 1:200 in Mueller Hinton broth to obtain a test sample having a concentration of […]. The test sample was then tested for MIC as described in M202.R02. After incubation, each tube was examined for turbidity, which indicated growth or no growth. For the tubes where the product rendered the media turbid, an aliquot of the media was streaked onto agar plates to confirm growth or lack of growth.

[2] = test system: Bacillus subtilis (ATCC 6633)
Method: as §1

[3] = test system: Proteus mirabilis (ATCC 7002)
Method: as §1

[4] = test system: Streptococcus pneumonia (ATCC 6303)
Method: as §1

[5] = test system: Staphylococcus aureus (MRSA) (ATCC 33592)
Method: as §1

[6] = test system: Staphylococcus epidermidis (ATCC 12228)
Method: as §1

[7] = test system: Enterobacter cloacae (ATCC 13047)
Method: as §1

[8] = test system: Enterococcus faecalis (ATCC 51299)
Method: as §1

[9] = test system: Candida albicans (ATCC 10231)
Method: as §1

[10] = test system: Micrococcus luteus (ATCC 4698)
Method: as §1

[11] = test system: Escherichia coli ATCC 25922
Method: as §1

[12] = test system: Klebsiella oxytoca (ATCC 43165)
Method: as §1

[13] = test system: Pseudomonas aeruginosa (ATCC 9027)
Method: as §1

[14] = test system: Corynebacterium jeikeium (ATCC 43734)
Method: as §1

[15] = test system: Staphylococcus hominis (ATCC 27844)
Method: as §1

[16] = test system: Enterobacter aerogenes (ATCC 13048)
Method: as §1

CCCCCCCCCCCCOC(=O)C(C)N(C)C (stereo not shown) [Nex-05, Dodecyl 2-(dimethylamino)propanoate hydrochloride]
MIC ([1]; Example 35): 0.313% | Growth/no growth ([1]; Sample Concentration 0.039%): Growth | Growth/no growth ([1]; Sample Concentration 0.078%): Growth | Growth/no growth ([1]; Sample Concentration 0.156%): Growth | MIC ([2]; Example 35): 0.313% | Growth/no growth ([2]; Sample Concentration 0.039%): Growth | Growth/no growth ([2]; Sample Concentration 0.078%): Growth | Growth/no growth ([2]; Sample Concentration 0.156%): Growth | MIC ([3]; Example 35): 1.25% | Growth/no growth ([3]; Sample Concentration 0.039%): Growth | Growth/no growth ([3]; Sample Concentration 0.078%): Growth | Growth/no growth ([3]; Sample Concentration 0.156%): Growth | Growth/no growth ([3]; Sample Concentration 0.313%): Growth | Growth/no growth ([3]; Sample Concentration 0.625%): Growth | MIC ([4]; Example 35): 0.156% | Growth/no growth ([4]; Sample Concentration 0.039%): Growth | Growth/no growth ([4]; Sample Concentration 0.078%): Growth | MIC ([5]; Example 35): 0.625% | Growth/no growth ([5]; Sample Concentration 0.039%): Growth | Growth/no growth ([5]; Sample Concentration 0.078%): Growth | Growth/no growth ([5]; Sample Concentration 0.156%): Growth | Growth/no growth ([5]; Sample Concentration 0.313%): Growth | MIC ([6]; Example 35): 0.313% | Growth/no growth ([6]; Sample Concentration 0.039%): Growth | Growth/no growth ([6]; Sample Concentration 0.078%): Growth | Growth/no growth ([6]; Sample Concentration 0.156%): Growth | MIC ([7]; Example 35): 0.625% | Growth/no growth ([7]; Sample Concentration 0.039%): Growth | Growth/no growth ([7]; Sample Concentration 0.078%): Growth | Growth/no growth ([7]; Sample Concentration 0.156%): Growth | Growth/no growth ([7]; Sample Concentration 0.313%): Growth | MIC ([8]; Example 35): 0.313% | Growth/no growth ([8]; Sample Concentration 0.039%): Growth | Growth/no growth ([8]; Sample Concentration 0.078%): Growth | Growth/no growth ([8]; Sample Concentration 0.156%): Growth | MIC ([9]; Example 35): 0.313% | Growth/no growth ([9]; Sample Concentration 0.039%): Growth | Growth/no growth ([9]; Sample Concentration 0.078%): Growth | Growth/no growth ([9]; Sample Concentration 0.156%): Growth | MIC ([10]; Example 35): 0.313% | Growth/no growth ([10]; Sample Concentration 0.039%): Growth | Growth/no growth ([10]; Sample Concentration 0.078%): Growth | Growth/no growth ([10]; Sample Concentration 0.156%): Growth | MIC ([11]; Example 35): 1.25% | Growth/no growth ([11]; Sample Concentration 0.039%): Growth | Growth/no growth ([11]; Sample Concentration 0.078%): Growth | Growth/no growth ([11]; Sample Concentration 0.156%): Growth | Growth/no growth ([11]; Sample Concentration 0.313%): Growth | Growth/no growth ([11]; Sample Concentration 0.625%): Growth | MIC ([12]; Example 35): 1.25% | Growth/no growth ([12]; Sample Concentration 0.039%): Growth | Growth/no growth ([12]; Sample Concentration 0.078%): Growth | Growth/no growth ([12]; Sample Concentration 0.156%): Growth | Growth/no growth ([12]; Sample Concentration 0.313%): Growth | Growth/no growth ([12]; Sample Concentration 0.625%): Growth | MIC ([13]; Example 35): 1.25% | Growth/no growth ([13]; Sample Concentration 0.039%): Growth | Growth/no growth ([13]; Sample Concentration 0.078%): Growth | Growth/no growth ([13]; Sample Concentration 0.156%): Growth | Growth/no growth ([13]; Sample Concentration 0.313%): Growth | MIC ([14]; Example 35): 0.625% | Growth/no growth ([14]; Sample Concentration 0.039%): Growth | Growth/no growth ([14]; Sample Concentration 0.078%): Growth | Growth/no growth ([14]; Sample Concentration 0.156%): Growth | Growth/no growth ([14]; Sample Concentration 0.313%): Growth | MIC ([15]; Example 35): 0.625% | Growth/no growth ([15]; Sample Concentration 0.039%): Growth | Growth/no growth ([15]; Sample Concentration 0.078%): Growth | Growth/no growth ([15]; Sample Concentration 0.156%): Growth | Growth/no growth ([15]; Sample Concentration 0.313%): Growth | MIC ([16]; Example 35): 1.25% | Growth/no growth ([16]; Sample Concentration 0.039%): Growth | Growth/no growth ([16]; Sample Concentration 0.078%): Growth | Growth/no growth ([16]; Sample Concentration 0.156%): Growth | Growth/no growth ([16]; Sample Concentration 0.313%): Growth | Growth/no growth ([16]; Sample Concentration 0.625%): Growth
